Consider 18 compounds from the RepoRT retention time repository.

A short description of the data set: RP, Waters ACQUITY UPLC BEH C18, 150 × 2.1 mm, 1.7 µm, 40 °C, 0.4 mL/min, estimated dead time 0.83 min; A: water + 0.1% formic acid, pH 3; B: acetonitrile; gradient (min/%B) 0/2 1.5/8 3.5/14 6/16 8/25 9.2/98 10.5/2 12/2. The following applies: stereoisomer not certain.
On to `O=c1cc(-c2ccc(O)cc2)oc2c(C3OCC(O)C(O)C3O)c(O)c(C3OC(CO)C(O)C(O)C3O)c(O)c12` (stereo not drawn) [apigenin 6-C-glucoside-8-C-arabinoside], for which the LC retention time is 4.93 min. On to `COc1cc(-c2cc(=O)c3c(O)cc(OC4OC(COC(=O)C=Cc5ccc(O)cc5)C(O)C(O)C4O)cc3o2)ccc1O` (stereo not drawn) [chrysoeriol 7-O-[6''-coumaroyl]-glucoside], for which the LC retention time is 10.6 min. Next, `COc1cc(-c2cc(=O)c3c(O)cc(OC4OC(COC5OC(CO)C(O)C(O)C5O)C(O)C(O)C4O)cc3o2)ccc1O` (stereo not drawn) [chrysoeriol 7-O-diglucoside]: 8.42 min.

Turning to `COc1cc(C=CC(=O)OCC2OC(OC3C(c4c(O)cc5oc(-c6ccc(O)cc6)cc(=O)c5c4O)OC(CO)C(O)C3O)C(O)C(O)C2O)ccc1O` (stereo not drawn) [feruloyl-isovitexin 2''-O-glucoside], the LC retention time is 7.88 min. In the case of `NC(N)=NCCCCNC(=O)C=Cc1ccc2c(c1)C(C(=O)NCCCCN=C(N)N)C(c1ccc(O)cc1)O2` (stereo not drawn) [hordatine A], the LC retention time was 4.52 min. Next, `COc1cc(C=CC(=O)NCCCCN=C(N)N)cc2c1OC(c1ccc(O)cc1)C2C(=O)NCCCCN=C(N)N` (stereo not drawn) [hordatine B]: 4.42 min. For `COc1cc(C=CC(=O)OCC2OC(Oc3cc4oc(-c5ccc(O)c(O)c5)cc(=O)c4c(O)c3C3OC(CO)C(O)C(O)C3O)C(O)C(O)C2O)ccc1O` (stereo not drawn) [isoorientin 7-O-[6''-feruloyl]-glucoside], the LC retention time is 6.23 min. Consider `CC1OC(OC2C(Oc3cc4oc(-c5ccc(O)c(O)c5)cc(=O)c4c(O)c3C3OC(CO)C(O)C(O)C3O)OC(CO)C(O)C2O)C(O)C(O)C1O` (stereo not drawn) [isoorientin 7-O-rhamnosylglucoside], for which the LC retention time was 4.69 min.

Turning to `COc1cc(-c2cc(=O)c3c(O)c(C4OC(CO)C(O)C(O)C4OC4OCC(O)C(O)C4O)c(O)cc3o2)ccc1O` (stereo not drawn) [isoscoparin 2''-O-arabinoside], the LC retention time was 6.97 min.

For the compound `COc1cc(-c2cc(=O)c3c(O)c(C4OC(CO)C(O)C(O)C4O)c(OC4OC(COC(=O)C=Cc5cc(OC)c(O)c(OC)c5)C(O)C(O)C4O)cc3o2)ccc1O` (stereo not drawn) [isoscoparin 7-O-[6''-sinapoyl]-glucoside], the LC retention time was 7.62 min. Next, `O=c1cc(-c2ccc(O)cc2)oc2cc(O)c(C3OC(CO)C(O)C(O)C3OC3OCC(O)C(O)C3O)c(O)c12` (stereo not drawn) [isovitexin 2''-O-arabinoside]: 5.62 min. Next, `O=c1cc(-c2ccc(O)cc2)oc2cc(OC3OC(CO)C(O)C(O)C3O)c(C3OC(CO)C(O)C(O)C3O)c(O)c12` (stereo not drawn) [isovitexin 7-O-glucoside (saponarin)]: 4.61 min; `CC1OC(OC2C(Oc3cc4oc(-c5ccc(O)cc5)cc(=O)c4c(O)c3C3OC(CO)C(O)C(O)C3O)OC(CO)C(O)C2O)C(O)C(O)C1O` (stereo not drawn) [isovitexin 7-O-rhamnosylglucoside]: 4.81 min; `O=c1cc(-c2ccc(O)cc2)oc2c(C3OC(CO)C(O)C(O)C3O)c(O)c(C3OC(CO)C(O)C(O)C3O)c(O)c12` (stereo not drawn) [isovitexin 8-C-glucoside]: 5.25 min.

For the compound `O=c1cc(-c2ccc(O)c(O)c2)oc2c(C3OC(CO)C(O)C(O)C3O)c(O)c(C3OCC(O)C(O)C3O)c(O)c12` (stereo not drawn) [luteolin 6-C-arabinoside 8-C-glucoside], the LC retention time was 4.87 min.

Take `COc1cc(-c2cc(=O)c3c(O)c(C4OC(CO)C(O)C(O)C4OC4OCC(OC(=O)C=Cc5cc(OC)c(O)c(OC)c5)C(O)C4O)c(O)cc3o2)ccc1O` (stereo not drawn) [sinapoyl-isoscoparin 2''-O-arabinoside]: the LC retention time is 9.65 min. As to `COc1cc(C=CC(=O)OC2COC(OC3C(c4c(O)cc5oc(-c6ccc(O)cc6)cc(=O)c5c4O)OC(CO)C(O)C3O)C(O)C2O)cc(OC)c1O` (stereo not drawn) [sinapoyl-isovitexin 2''-O-arabinoside], the LC retention time is 9.32 min. Next, `COc1cc(C=CC(=O)OCC2OC(Oc3cc(O)c4c(=O)cc(-c5cc(OC)c(O)c(OC)c5)oc4c3)C(O)C(O)C2O)cc(OC)c1O` (stereo not drawn) [sinapoyl-tricin 7-O-glucoside]: 4.56 min.
